The source of these data is US20170189547A1, “Biodegradable Drug Delivery Composition” (Durect Corporation, priority 2010, published 2017).

This data set has as its target T1, hGH (Homo sapiens, UniProt P01241).
T1 construct: purchased Hospira, Adelaide
The experiment in a line: Complexation capability of hGH with anionic and cationic agents (non-complexed hGH in supernatant by RPLC). To be noted: for Observation: hGH with complexing agent; for Supernatant Analysis (% of hGH): non-complexed hGH by RPLC. It counts as physicochemical. As to the method:
Additional complexation agents were tested in vitro for their ability to precipitate rhGH.
Human growth hormone (purchased from Hospira, Adelaide) was complexed with poly lysine, poly arginine, poly adenylic acid (poly-A), or poly thymine (poly-T) in appropriate ratios (as specified in Table 28) to form suspensions. Supernatant was separated from precipitate (ppt) by centrifugation of the complexed material suspensions. The supernatant solution was analyzed for non-complexed hGH by reverse phase liquid chromatography (RPLC).

T1 sequence (P01241 27-217): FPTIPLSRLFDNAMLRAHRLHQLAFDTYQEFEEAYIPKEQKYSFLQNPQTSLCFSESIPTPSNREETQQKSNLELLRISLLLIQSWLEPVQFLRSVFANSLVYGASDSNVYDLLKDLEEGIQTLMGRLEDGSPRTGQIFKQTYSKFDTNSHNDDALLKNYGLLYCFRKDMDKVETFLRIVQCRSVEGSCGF

Consider Hyaluronic Acid, for which, under “concentration ratio 1:2”, the Observation entry is given as “No ppt” and the “Supernatant Analysis (% of hGH)” value is given as >90 % of hGH.
Take Poly-Lysine: under “concentration ratio 1:10”, the Observation result is “Cloudy ppt” and the “Supernatant Analysis (% of hGH)” value is 9.5 % of hGH.
